The source of these data is patent US7794967B2, “Method and kit for detection of novel pathogen inhibitors” (priority 2001, dated 2010).

For test [1], the target named is Escherichia coli Klenow polymerase (pol) (Escherichia coli, UniProt P00582, D355A/E357A). The test is described as follows: Inhibition of Klenow polymerase activity.
The target of test [2] is T1, mammalian poly(A)-specific ribonuclease (PARN) (Bos taurus, UniProt P69341).
T1 sequence (P69341 1-430 limits assumed): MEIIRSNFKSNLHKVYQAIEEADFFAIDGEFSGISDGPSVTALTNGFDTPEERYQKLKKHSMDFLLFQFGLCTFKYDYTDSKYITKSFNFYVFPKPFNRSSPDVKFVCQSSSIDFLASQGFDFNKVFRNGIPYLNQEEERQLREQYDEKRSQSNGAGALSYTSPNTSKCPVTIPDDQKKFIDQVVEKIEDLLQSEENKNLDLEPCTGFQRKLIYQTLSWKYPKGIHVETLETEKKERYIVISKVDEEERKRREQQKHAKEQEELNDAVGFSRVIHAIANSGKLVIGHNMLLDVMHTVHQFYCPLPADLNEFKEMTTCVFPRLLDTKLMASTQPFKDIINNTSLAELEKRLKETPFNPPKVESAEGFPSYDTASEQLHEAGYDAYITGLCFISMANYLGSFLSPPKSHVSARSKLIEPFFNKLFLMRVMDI
The test is described as follows: Inhibition of PARN deadenylation activity. In kind it is biochemical, calf thymus. To be noted: for IC50: appKi = aminoglycoside concentration resulting in 50% inhibition of PARN activity, pH 7.0. An excerpt: Homogeneously purified calf thymus PARN 54 kDa active fragment was used as the source of PARN (Martinez et al. 2000). Recombinant full length human PARN was expressed and purified as described (Martinez et al. 2000). As the substrate we used L3(A30) RNA radioactively labelled in its poly(Å) tail (Åström et al. 1991). Assay conditions and 1-D TLC quantitation procedures were as previously described (Åström et al. 1992). The pH of the deadenylation reactions were 7.0, unless stated otherwise. The consumption of L3(A30) RNA substrate was controlled so that no more than 20% of it was consumed.

For test [3], the target named is 31-mer RNA representing the P15-loop of RNase P RNA. The test is described as follows: Inhibition of Pb2+-induced cleavage of the 31-mer model RNA (P15-loop). It is filed as binding, Escherichia coli. To be noted: aminoglycoside concentration that gives 50% inhibition of Pb2+-induced cleavage; read-out: appKi 31-mer RNA.
The target in test [4] is Bam HI restriction enzyme (Bacillus amyloliquefaciens, UniProt P23940). The test is described as follows: In vitro inhibition of Bam HI restriction enzyme. It is filed as biochemical. To be noted: addition of 0.1-5 mM neomycin B. An excerpt: (§1) The mechanisms behind toxicity and severe side-effects are not understood and several potential causes have been discussed in the literature.
Chain of Bam HI restriction enzyme (P23940 whole entry): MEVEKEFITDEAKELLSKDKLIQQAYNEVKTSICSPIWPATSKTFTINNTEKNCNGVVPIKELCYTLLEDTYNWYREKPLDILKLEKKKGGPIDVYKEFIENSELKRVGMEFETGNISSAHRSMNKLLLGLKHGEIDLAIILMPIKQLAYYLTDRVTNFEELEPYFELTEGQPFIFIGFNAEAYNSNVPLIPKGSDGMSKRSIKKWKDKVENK

Test [5] addresses T2, HIV reverse transcriptase (Human immunodeficiency virus type 1 group M subtype B, UniProt P04585).
T2 construct: HIV reverse transcriptase
The test is described as follows: In vitro inhibition of HIV reverse transcriptase. In kind it is biochemical. To be noted: addition of 0.1-5 mM neomycin B.
From the text: as §1

The target in test [6] is bacterial RNase H (Escherichia coli, UniProt P0A7Y4). The test is described as follows: In vitro inhibition of bacterial RNase H. It is filed as biochemical. To be noted: addition of 0.1-5 mM neomycin B.
Chain of bacterial RNase H (P0A7Y4 whole entry): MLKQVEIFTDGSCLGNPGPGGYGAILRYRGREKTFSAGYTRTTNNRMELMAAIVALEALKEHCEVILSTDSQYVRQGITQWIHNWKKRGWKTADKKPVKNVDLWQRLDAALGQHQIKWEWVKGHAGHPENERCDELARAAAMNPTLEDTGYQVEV
From the text: as §1

The target in test [7] is mammalian poly(A) polymerase (Homo sapiens, UniProt P51003). The test is described as follows: In vitro inhibition of mammalian poly(A) polymerase. In kind it is biochemical. To be noted: addition of 0.1-5 mM neomycin B.
Chain of mammalian poly(A) polymerase (P51003 whole entry): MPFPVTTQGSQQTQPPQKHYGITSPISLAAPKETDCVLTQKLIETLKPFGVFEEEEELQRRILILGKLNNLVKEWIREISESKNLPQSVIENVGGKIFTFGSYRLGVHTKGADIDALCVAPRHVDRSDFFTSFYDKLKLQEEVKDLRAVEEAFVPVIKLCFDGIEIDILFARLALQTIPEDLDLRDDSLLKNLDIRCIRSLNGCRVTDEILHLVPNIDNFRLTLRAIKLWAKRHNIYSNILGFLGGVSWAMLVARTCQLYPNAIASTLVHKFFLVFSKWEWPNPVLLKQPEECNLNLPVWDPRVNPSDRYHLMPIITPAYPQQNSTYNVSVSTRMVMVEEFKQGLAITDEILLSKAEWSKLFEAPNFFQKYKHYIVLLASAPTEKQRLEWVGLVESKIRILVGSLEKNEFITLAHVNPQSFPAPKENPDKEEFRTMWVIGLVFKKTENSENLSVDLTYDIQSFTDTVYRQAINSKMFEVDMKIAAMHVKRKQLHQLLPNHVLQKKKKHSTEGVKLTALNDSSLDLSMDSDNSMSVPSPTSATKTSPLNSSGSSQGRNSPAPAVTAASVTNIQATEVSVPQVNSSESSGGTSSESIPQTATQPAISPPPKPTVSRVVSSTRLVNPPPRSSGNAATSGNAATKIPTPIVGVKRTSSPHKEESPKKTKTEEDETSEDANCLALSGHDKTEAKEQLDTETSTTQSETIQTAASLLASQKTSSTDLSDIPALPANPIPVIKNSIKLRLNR
From the text: as §1

The target in test [8] is Taq DNA polymerase (Thermus aquaticus, UniProt P19821). The test is described as follows: In vitro inhibition of Taq DNA polymerase. To be noted: addition of 0.1-5 mM neomycin B. In kind it is biochemical.
Chain of Taq DNA polymerase (P19821 whole entry): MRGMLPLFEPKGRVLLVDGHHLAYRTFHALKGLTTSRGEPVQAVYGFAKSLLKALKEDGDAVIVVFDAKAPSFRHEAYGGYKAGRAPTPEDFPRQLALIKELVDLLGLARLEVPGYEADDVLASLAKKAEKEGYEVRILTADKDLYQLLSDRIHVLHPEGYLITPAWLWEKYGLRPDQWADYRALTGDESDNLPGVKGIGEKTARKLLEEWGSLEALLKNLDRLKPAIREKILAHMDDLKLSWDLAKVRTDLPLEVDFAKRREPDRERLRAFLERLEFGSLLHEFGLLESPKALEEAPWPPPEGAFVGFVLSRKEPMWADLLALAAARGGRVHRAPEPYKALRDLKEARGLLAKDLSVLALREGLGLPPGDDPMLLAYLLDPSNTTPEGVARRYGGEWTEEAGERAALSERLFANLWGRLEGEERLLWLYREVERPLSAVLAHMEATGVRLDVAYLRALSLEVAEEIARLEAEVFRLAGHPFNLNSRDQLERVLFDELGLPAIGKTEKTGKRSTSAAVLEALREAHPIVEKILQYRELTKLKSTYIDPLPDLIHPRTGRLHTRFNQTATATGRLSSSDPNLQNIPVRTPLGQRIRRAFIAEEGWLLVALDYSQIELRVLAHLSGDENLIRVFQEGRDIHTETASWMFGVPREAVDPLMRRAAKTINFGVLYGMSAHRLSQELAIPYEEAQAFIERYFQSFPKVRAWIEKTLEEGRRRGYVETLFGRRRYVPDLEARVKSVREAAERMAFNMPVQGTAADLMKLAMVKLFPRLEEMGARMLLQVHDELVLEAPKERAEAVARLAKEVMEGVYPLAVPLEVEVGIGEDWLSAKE
From the text: as §1

For test [9], the target named is T7 RNA polymerase (Escherichia phage T7, UniProt P00573). The test is described as follows: In vitro inhibition of T7 RNA polymerase. To be noted: addition of 0.1-5 mM neomycin B. In kind it is biochemical.
Chain of T7 RNA polymerase (P00573 whole entry): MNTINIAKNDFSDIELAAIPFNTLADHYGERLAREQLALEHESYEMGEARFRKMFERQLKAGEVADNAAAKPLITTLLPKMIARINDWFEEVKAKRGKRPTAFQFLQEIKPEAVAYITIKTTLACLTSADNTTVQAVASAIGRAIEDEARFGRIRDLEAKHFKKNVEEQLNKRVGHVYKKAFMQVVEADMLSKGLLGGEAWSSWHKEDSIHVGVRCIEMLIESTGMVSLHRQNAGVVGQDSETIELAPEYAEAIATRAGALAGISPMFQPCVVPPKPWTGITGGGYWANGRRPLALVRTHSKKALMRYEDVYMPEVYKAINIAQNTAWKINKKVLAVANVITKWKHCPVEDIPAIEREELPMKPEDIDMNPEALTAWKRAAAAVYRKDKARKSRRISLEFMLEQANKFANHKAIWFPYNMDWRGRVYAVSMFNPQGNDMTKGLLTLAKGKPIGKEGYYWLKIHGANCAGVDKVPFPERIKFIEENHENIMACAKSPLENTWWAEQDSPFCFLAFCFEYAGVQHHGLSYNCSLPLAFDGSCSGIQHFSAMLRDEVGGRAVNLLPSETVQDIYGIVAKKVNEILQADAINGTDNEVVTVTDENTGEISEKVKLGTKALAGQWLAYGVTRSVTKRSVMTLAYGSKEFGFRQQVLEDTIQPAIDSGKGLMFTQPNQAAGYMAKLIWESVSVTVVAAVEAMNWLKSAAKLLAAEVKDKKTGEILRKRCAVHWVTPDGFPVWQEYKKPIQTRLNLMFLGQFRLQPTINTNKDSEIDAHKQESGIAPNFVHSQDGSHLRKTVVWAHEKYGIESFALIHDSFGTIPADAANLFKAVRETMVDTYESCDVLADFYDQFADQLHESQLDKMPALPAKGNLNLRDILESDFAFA
From the text: as §1

The subject of test [10] is Klenow pol. The test is described as follows: Fe(II) mediated hydroxyl radical cleavage of Klenow pol. In kind it is binding, Escherichia coli. The method, then: 2-4 microgram of purified recombinant Klenow pol fragment or mutant thereof, dialysed against buffer F (20 mM HEPES-KOH pH 7.0, 5 mM NaCl) on a Milipore “V” Series Membrane (Millipore) for 30 minutes at 4° C., was incubated for 30 minutes at 37° C. in 50 mM HEPES pH 7.0, 5 mM NaCl, 20 micromolar Fe(NH4)2SO4 and 10 mM DTT in total volume of 10 microliter. The incubations were stopped by the addition of 10 microliter of 2×SDS-loading buffer (100 mM Tris-HCl pH 6.8, 2% (w/v) SDS, 200 mM DTT, 16%(v/v) glycerol, 0.05%(w/v) bromolphenol blue and 50 mM EDTA). The amount of added Mg(II)-ions, Mn(II)-ions or aminoglycoside was as indicated. Reacted polypeptides were fractionated by 10% SDS-polyacrylamide gel electrophoresis and subsequently visualised by silver staining.

Test [11] addresses T3, PARN (Homo sapiens, UniProt O95453).
T3 construct: Recombinant full length human PARN was expressed and purified as described; made in house; host or cells: E. coli
T3 sequence (O95453 1-639): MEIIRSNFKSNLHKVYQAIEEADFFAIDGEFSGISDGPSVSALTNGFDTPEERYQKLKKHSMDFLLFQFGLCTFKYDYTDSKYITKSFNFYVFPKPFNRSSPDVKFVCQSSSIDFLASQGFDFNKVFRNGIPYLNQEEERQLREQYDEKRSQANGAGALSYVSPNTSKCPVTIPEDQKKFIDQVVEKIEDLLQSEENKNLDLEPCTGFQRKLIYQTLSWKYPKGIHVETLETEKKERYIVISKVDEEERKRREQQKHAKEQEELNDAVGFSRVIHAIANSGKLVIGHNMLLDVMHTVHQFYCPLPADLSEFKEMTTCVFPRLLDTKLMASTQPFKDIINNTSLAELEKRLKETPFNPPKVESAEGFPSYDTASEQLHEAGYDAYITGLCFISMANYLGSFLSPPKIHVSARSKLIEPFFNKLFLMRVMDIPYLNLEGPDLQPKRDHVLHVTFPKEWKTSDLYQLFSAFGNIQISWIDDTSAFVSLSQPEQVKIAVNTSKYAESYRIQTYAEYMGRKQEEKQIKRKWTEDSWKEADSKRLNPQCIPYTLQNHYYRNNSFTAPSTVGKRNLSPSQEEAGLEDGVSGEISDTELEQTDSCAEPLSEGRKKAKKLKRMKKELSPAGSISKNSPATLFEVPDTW
The test is described as follows: Fe(II) mediated hydroxyl radical cleavage of PARN. It is filed as binding. As to the method: Recombinant PARN polypeptides expressed in E. coli were purified and radioactively labelled in their N-termini. Fe(II) mediated hydroxyl radical cleavage, of PARN was essentially performed as described above. Reacted samples were subjected to 10% SDS-polyacrylamide gel electrophoresis and the resulting gel was subsequently visualized and quantified using a 400 S PhosphorImager (Molecular Dynamics). In the Mg(II) and Mn(II) ions competition experiments, MgCl2 or MnCl2 was added at indicated concentration in the presence of 20 micromolar Fe(NH4)2SO4.

Test [12] has as its target RNase P RNA. To be noted: values marked *, from Mikkelsen et al., 1999; read-out: appKi inhibition of RNase P RNA cleavage; cited from earlier work.
Test [13] has as its system Full-size E. coli RNase P RNA. To be noted: Mikkelsen et al., 1999; cited from earlier work.
Test [14] addresses RNase P RNA. The test is described as follows: Inhibition of RNase P RNA cleavage. It is filed as biochemical, Escherichia coli. To be noted: value without asterisk; read-out: appKi inhibition of RNase P RNA cleavage. As to the method: The structure of some aminoglycosides that inhibit RNase P cleavage are depicted in FIG. 3. Aminoglycosides bind to RNA and displace functionally important divalent metal ions. Thus, aminoglycosides function as metal mimics (Mikkelsen et al., 2001).
RNase P cleavage and Pb2+-induced cleavage was performed and monitored according to standard protocols as described by Kufel and Kirsebom (1998). To determine the appKi value for a given substance RNase P cleavage or Pb2+-induced cleavage conditions were adjusted in such a way that measurements were carried out in the linear portion of the curve of kinetics of the cleavage reaction.

Setting [15] is: read-out: appKi (for KL pol), […], pH 7.0.

Where two headings read alike, the source gives them in different places.

Chain of Escherichia coli Klenow polymerase (pol) (P00582 324-928 D355A/E357A): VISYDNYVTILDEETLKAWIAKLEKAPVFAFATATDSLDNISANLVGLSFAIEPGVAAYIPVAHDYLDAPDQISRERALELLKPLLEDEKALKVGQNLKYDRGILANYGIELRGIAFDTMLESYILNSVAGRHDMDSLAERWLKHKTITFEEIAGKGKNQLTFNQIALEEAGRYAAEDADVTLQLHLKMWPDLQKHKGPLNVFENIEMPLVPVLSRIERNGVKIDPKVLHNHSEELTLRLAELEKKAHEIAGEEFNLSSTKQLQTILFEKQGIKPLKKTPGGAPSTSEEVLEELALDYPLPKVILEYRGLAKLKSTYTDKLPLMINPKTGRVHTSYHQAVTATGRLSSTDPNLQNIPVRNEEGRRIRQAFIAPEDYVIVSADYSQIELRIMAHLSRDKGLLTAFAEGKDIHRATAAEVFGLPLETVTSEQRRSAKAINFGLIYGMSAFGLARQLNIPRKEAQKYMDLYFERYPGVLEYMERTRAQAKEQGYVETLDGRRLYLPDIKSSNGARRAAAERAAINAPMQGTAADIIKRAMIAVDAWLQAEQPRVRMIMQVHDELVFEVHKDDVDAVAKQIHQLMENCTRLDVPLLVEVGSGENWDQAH

As to `NC[C@H]1O[C@H](O[C@H]2[C@H](O)[C@@H](O[C@H]3O[C@H](CO)[C@@H](O)[C@H](N)[C@H]3O)[C@H](N)C[C@@H]2N)[C@H](O)[C@@H](O)[C@@H]1O` [Kanamycin A], the IC50 in [1] (setting [15]) is 14300 ± 1700 µM.

For the compound `NC[C@@H]1O[C@H](O[C@H]2[C@@H](O)[C@H](O[C@@H]3[C@@H](O)[C@H](N)C[C@H](N)[C@H]3O[C@H]3O[C@H](CO)[C@@H](O)C[C@H]3N)O[C@@H]2CO)[C@H](N)[C@@H](O)[C@@H]1O[C@H]1O[C@H](CO)[C@@H](O)[C@H](O)[C@@H]1O` [Lividomycin], the IC50 in test [2] turned out to be 18.7 ± 2.8 µM; in test [1], 11600 ± 2000 µM.

Consider `NC[C@H]1O[C@H](O[C@H]2[C@H](O)[C@@H](O[C@H]3O[C@H](CO)[C@@H](O)[C@H](N)[C@H]3O)[C@H](N)C[C@@H]2N)[C@H](N)[C@@H](O)[C@@H]1O` [Kanamycin B], for which the IC50 came out at 7.3 ± 0.4 µM in [2] and 9200 ± 300 µM in test [1] (setting [15]).

As for `CN[C@@H]1[C@@H](O)[C@@H](O[C@@H]2[C@@H](O)[C@H](O[C@H]3OC(CN)=CC[C@H]3N)[C@@H](N)C[C@H]2N)OC[C@]1(C)O` [Sisomicin], in test [3], the IC50 was 17 µM.

Take `NC[C@@H]1O[C@H](O[C@H]2[C@@H](O)[C@H](O[C@@H]3[C@@H](O)[C@H](N)C[C@H](N)[C@H]3O[C@H]3O[C@H](CN)[C@@H](O)[C@H](O)[C@H]3N)O[C@@H]2CO)[C@H](N)[C@@H](O)[C@@H]1O` [Neomycin B]: the “mode of inhibition (enzyme kinetic analyses)” value in test [2] (PARN) and in [1] (Klenow pol) was “mixed non-competitive inhibitor” in each case. In addition, the “pH dependence of inhibition” value in [2] (PARN) and in test [1] (Klenow pol) was “pH dependent” in each case. In addition, the IC50 is 0.4 ± 0.1 µM in test [2], 40 µM in test [3], 35 ± 12 µM in test [12] and 4800 ± 300 µM in test [1] (setting [15]). In addition, the “inhibition of Bam HI restriction enzyme” value in [4] is “can be inhibited”. In addition, the “inhibition of HIV reverse transcriptase” value in test [5] is given as “can be inhibited”. Besides, the “inhibition of bacterial RNase H” value in test [6] was “can be inhibited”. Moreover, in test [7], the “inhibition of mammalian poly(A) polymerase” value is reported as “can be inhibited”. Moreover, the “inhibition of Taq DNA polymerase” value in test [8] was “can be inhibited”. Further, the “inhibition of T7 RNA polymerase” value in test [9] is reported as “can be inhibited”. In addition, the “effect on iron mediated cleavage at the active site” value in [10] and in [11] was “interfered with iron mediated cleavage” in each case. Besides, the “inhibition of Pb2+-induced cleavage of E. coli RNase P RNA” value in test [13] is on record as “inhibited”.

Consider `CN[C@@H]1[C@@H](O)[C@@H](O[C@@H]2[C@H](O)[C@H](O[C@H]3OC(CN)=CC[C@H]3N)[C@@H](N)C[C@H]2N)OC[C@]1(C)O` [5-epi-Sisomicin], for which the IC50 was 1.2 µM in test [3] and ~3 µM in test [14].

As to `NC[C@H]1O[C@H](O[C@H]2[C@H](O)[C@@H](O[C@H]3O[C@H](CO)[C@@H](O)[C@H](N)[C@H]3O)[C@H](N)C[C@@H]2N)[C@H](N)C[C@@H]1O` [Tobramycin], the IC50 in test [2] came to 7.1 ± 0.2 µM; in test [1] it was 9300 ± 700 µM.

On to `NC[C@@H]1O[C@H](O[C@H]2[C@@H](O)[C@H](O[C@@H]3[C@@H](O)[C@H](N)C[C@H](N)[C@H]3O[C@H]3O[C@H](CO)[C@@H](O)[C@H](O)[C@H]3N)O[C@@H]2CO)[C@H](N)[C@@H](O)[C@@H]1O` [Paromomycin], for which the IC50 in test [2] is 17.3 ± 3.5 µM; in [3], 340 µM; in test [12] it was 190 ± 12 µM; in test [1], 10300 ± 800 µM.
